Laboratory results taken from US4451483A, “2,3,4-Trinor-m-inter-phenylene-prostaglandin derivatives and compositions and method for inhibiting blood platelet aggregation” (Chinoin Gyogyszer es Vegyeszeti Termekek Gyara Rt., priority 1981, dated 1984).
Structures can show the parent of a compound that is named as a salt. Where two headings read alike, the source gives them in different places.

How the values were obtained:
[1] = test system: human PRP; test: Inhibition of ADP-induced aggregation in human platelet rich plasma (PRP), method of Born; assay type: cell-based; details: aggregation provoked by 4 μmol/ml of ADP, read-out: IC50 on human PRP (concentration required to attain 50% inhibiting effect)
Text: (§1) The main pharmacological effect of the new compounds according to the invention is that, like PGI2, they inhibit blood platelet aggregation and are able to dissolve the already existing agglomerates. The aggregation inhibiting effects of the new compounds were examined on human and guinea pig platelet rich plasma (PRP) according to the method of Born. Aggregation was provoked by adding 4 μmol/ml of ADP to the plasma, and then the prostacycline concentrations required to attain 50% or 100% inhibiting effect (IC50 or IC100) were determined.

[2] = test system: guinea pig PRP; test: Inhibition of ADP-induced aggregation in guinea pig platelet rich plasma (PRP), method of Born; assay type: cell-based; details: Cavia porcellus, aggregation provoked by 4 μmol/ml of ADP, read-out: IC100 on guinea pig PRP (concentration required to attain 100% inhibiting effect)
Text: as §1

[3] = Biological half-life in aqueous medium (period within which the biological activity drops to the half); assay type: physicochemical; details: aqueous medium at pH=7
Procedure: The biological half-life (i.e. the period within which the biological activity of the substance drops to the half) is 3 minutes for PGI2 an an aqueous medium at pH=7, and about 7 days for the new compounds according to the invention.

[4] = sodium salt: storage, free acid: physiological conditions, hydrolysis into 6-keto-PGF1α, cited from earlier work

CCCCCC[C@H](O)/C=C/[C@@H]1[C@H]2C/C(=C/c3cccc(C(=O)O)c3)O[C@H]2C[C@H]1O [5(Z)-2,3,4-Trinor-1,5-inter-m-phenylene-20-methyl-PGI2 sodium salt]
IC50 [1]: 12.5 ng/mL
IC100 [2]: 0.014 µg/mL

CCCCC[C@H](O)/C=C/[C@@H]1[C@H]2C/C(=C/CCCC(=O)O)O[C@H]2C[C@H]1O [PGI2]
half-life [3]: 3 min
stability of prostacycline sodium salt / free acid ([4]; listed as free PGI2 acid): rapidly hydrolyzes into 6-keto-PGF1α

CCCCC[C@H](O)/C=C/[C@@H]1[C@H]2C/C(=C/CCCC(=O)O)O[C@H]2C[C@H]1O [PGI2 sodium salt]
IC50 [1]: 2 ng/mL
stability of prostacycline sodium salt / free acid ([4]; listed as sodium salt of prostacycline): very stable, highly storable compound
IC100 [2]: 0.00175 µg/mL
